Assays:
SARS-COV-2 = conditions: 24 h
[1] = MTT cytotoxicity assay, Vero cells; conditions: African green monkey

`CC[C@H](C)[C@H](NC(=O)[C@H](CCCNC(=N)N)NC(=O)[C@H](CC(C)C)NC(=O)[C@@H](NC(=O)[C@H](CCCNC(=N)N)NC(=O)[C@H](CCSC)NC(=O)[C@@H](NC(=O)[C@@H](N)CCCNC(=N)N)[C@@H](C)CC)[C@@H](C)CC)C(=O)N[C@@H](CC(C)C)C(=O)N[C@@H](CCCCN)C(=O)N[C@@H](CC(C)C)C(=O)N[C@@H](C)C(=O)N[C@@H](CCCNC(=N)N)C(=O)NCCCC[C@H](NC(=O)[C@H](CCCNC(=N)N)NC(=O)[C@H](C)NC(=O)[C@H](CC(C)C)NC(=O)[C@H](CCCCN)NC(=O)[C@H](CC(C)C)NC(=O)[C@@H](NC(=O)[C@H](CCCNC(=N)N)NC(=O)[C@H](CC(C)C)NC(=O)[C@@H](NC(=O)[C@H](CCCNC(=N)N)NC(=O)[C@H](CCSC)NC(=O)[C@@H](NC(=O)[C@@H](N)CCCNC(=N)N)[C@@H](C)CC)[C@@H](C)CC)[C@@H](C)CC)C(=O)N[C@@H](CSSC[C@H](NC(=O)[C@H](CCCCNC(=O)CCOCCOCCOCCOCCOCCOCCNC(=O)[C@H](CCCCN)NC(=O)[C@H](CC(C)C)NC(=O)[C@H](Cc1ccc(O)cc1)NC(=O)[C@@H](NC(=O)[C@H](CCSC)NC(=O)[C@H](C)NC(=O)CNC(=O)[C@H](Cc1c[nH]cn1)NC(=O)[C@@H](N)CCCNC(=N)N)C(C)C)NC(=O)CCOCCOCCOCCOCCOCCOCCNC(=O)[C@H](CCCCN)NC(=O)[C@H](CC(C)C)NC(=O)[C@H](Cc1ccc(O)cc1)NC(=O)[C@@H](NC(=O)[C@H](CCSC)NC(=O)[C@H](C)NC(=O)CNC(=O)[C@H](Cc1c[nH]cn1)NC(=O)[C@@H](N)CCCNC(=N)N)C(C)C)C(=O)O)C(=O)O` [AGM-330d-dCPP] showed an IC50 (SARS-COV-2) of 5.2 µM and a CC50 at 24 h [1] of 7.73 µM.
